Measured values reported in patent US20190069553A1, “METHOD FOR CONTROLLING PPO RESISTANT WEEDS” (BASF SE, priority 2016, published 2019).
Like-named read-outs stand apart in the source and are kept apart here.

Legend:
Format in all cases: in vivo
[1] = test system: Ambrosia elatior (common ragweed, AMBEL), sensitive biotype (w.4); conditions: scale 0 to 100
[2] = test system: Amaranthus tamariscinus (common waterhemp, AMATA), sensitive biotype (w.1); conditions: scale 0 to 100
[3] = test system: Amaranthus tamariscinus (common waterhemp, AMATA), PPO resistant biotype 8 (w.12); assay: Greenhouse herbicidal activity test, third experiment, weed w.12; conditions: use rate 4 g/ha; PPO resistant biotype 8 common waterhemp; scale 0 to 100
[4] = test system: Amaranthus tamariscinus (common waterhemp, AMATA), PPO resistant biotype 7 (w.11); assay: Greenhouse herbicidal activity test, third experiment, weed w.11; conditions: use rate 4 g/ha; PPO resistant biotype 7 common waterhemp; scale 0 to 100
[5] = test system: Amaranthus tamariscinus (common waterhemp, AMATA), sensitive biotype (w.10); assay: Greenhouse herbicidal activity test, third experiment, weed w.10; conditions: scale 0 to 100
[6] = test system: Amaranthus tuberculatus (tall waterhemp, AMATU), sensitive biotype (w.7); assay: Greenhouse herbicidal activity test, another (second) experiment, weed w.7; conditions: scale 0 to 100

SMILES | Weed control (%) w.4 ([1]; use rate 1 g/ha) [%] | Weed control (%) w.4 ([1]; use rate 2 g/ha) [%] | Weed control (%) w.1 ([2]; use rate 1 g/ha) [%] | Weed control (%) w.1 ([2]; use rate 2 g/ha) [%] | Weed control (%) w.12 [3] [%] | Weed control (%) w.11 [4] [%] | Weed control (%) w.10 ([5]; use rate 2 g/ha) [%] | Weed control (%) w.10 ([5]; use rate 4 g/ha) [%] | Weed control (%) 7 ([6]; use rate 1 g/ha) [%] | Weed control (%) 7 ([6]; use rate 2 g/ha) [%]
C#CCN1C(=O)COc2cc(F)c(N3C(=O)C4=C(CCCC4)C3=O)cc21 [flumioxazin, reference compound] | 50 | 65 | 90 | 95 | – | – | – | – | – | –
CCOC(=O)COc1ccccc1Oc1cc(-n2c(=O)cc(C(F)(F)F)n(C)c2=O)c(F)cc1Cl [compound (I).4] | – | – | – | – | 99 | 100 | 100 | 100 | – | –
C#CCOc1cc(-n2nc3n(c2=O)CCCC3)c(Cl)cc1Cl [azafenidin, reference compound] | – | – | – | – | 72 | 73 | 95 | 98 | – | –
CCOC(=O)COc1ncccc1Oc1cc(-n2c(=O)cc(C(F)(F)F)n(C)c2=O)c(F)cc1Cl [compound (I).1, ethyl [3-[2-chloro-4-fluoro-5-(1-methyl-6-trifluoromethyl-2,4-dioxo-1,2,3,4-tetrahydropyrimidin-3-yl)phenoxy]-2-pyridyloxy]acetate] | 100 | 100 | 100 | 100 | – | – | – | – | 100 | 100
